Laboratory results published in patent publication US20240400577A1, “MODULATORS OF PROTEIN KINASES” (VIBLIOME THERAPEUTICS, LLC, priority 2021, published 2024).

Experiments:
Test in all cases: Kinase panel enzymatic inhibition assay (Nanosyn)
Format in all cases: biochemical
[1] = target: T1, Abl2 (Homo sapiens, UniProt P42684); conditions: compound 5 μM; ATP at Km; 30-minute pre-incubation
T1 construct: purchased Nanosyn (contract screening)
In short: (§1)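 Read-out is percent inhibition or IC50, obtained by mobility shift, ADP detection or time-resolved fluorescence detection. Each kinase was run with ATP at its Km, and compound at 5 μM was pre-incubated for 30 minutes.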

[2] = target: T2, BRK (Homo sapiens, UniProt Q13882); conditions: compound 5 μM; ATP at Km; 30-minute pre-incubation
T2 construct: purchased Nanosyn (contract screening)
In short: as §1

[3] = target: T3, DDR1 (Homo sapiens, UniProt Q08345); conditions: ATP at Km, 30-minute pre-incubation; for inhibition at 5 µM: compound 5 μM; for IC50: read-out: kinase inhibition in terms of IC50, DDR1
T3 construct: purchased Nanosyn (contract screening)
In short: as §1

[4] = test system: EPH; conditions: compound 5 μM; ATP at Km; 30-minute pre-incubation
In short: as §1

[5] = target: T4, FGR (Homo sapiens, UniProt P09769); conditions: compound 5 μM; ATP at Km; 30-minute pre-incubation
T4 construct: purchased Nanosyn (contract screening)
T4 sequence (P09769 whole entry): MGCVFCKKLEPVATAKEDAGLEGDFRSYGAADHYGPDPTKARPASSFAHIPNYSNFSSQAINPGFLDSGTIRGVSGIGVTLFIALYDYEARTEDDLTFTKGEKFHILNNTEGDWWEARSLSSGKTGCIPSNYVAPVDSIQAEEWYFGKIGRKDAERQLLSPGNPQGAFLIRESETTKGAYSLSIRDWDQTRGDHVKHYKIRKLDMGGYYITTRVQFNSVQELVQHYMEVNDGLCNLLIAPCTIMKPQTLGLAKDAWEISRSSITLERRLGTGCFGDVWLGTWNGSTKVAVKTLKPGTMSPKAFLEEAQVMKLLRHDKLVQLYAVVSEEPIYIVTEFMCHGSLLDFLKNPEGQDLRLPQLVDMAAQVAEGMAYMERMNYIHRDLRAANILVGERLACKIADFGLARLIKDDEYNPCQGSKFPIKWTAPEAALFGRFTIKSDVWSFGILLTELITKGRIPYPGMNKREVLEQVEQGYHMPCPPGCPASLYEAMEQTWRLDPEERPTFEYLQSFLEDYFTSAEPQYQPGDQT
In short: as §1

[6] = target: T5, FYN (Homo sapiens, UniProt P06241); conditions: compound 5 μM; ATP at Km; 30-minute pre-incubation
T5 construct: purchased Nanosyn (contract screening)
T5 sequence (P06241 whole entry): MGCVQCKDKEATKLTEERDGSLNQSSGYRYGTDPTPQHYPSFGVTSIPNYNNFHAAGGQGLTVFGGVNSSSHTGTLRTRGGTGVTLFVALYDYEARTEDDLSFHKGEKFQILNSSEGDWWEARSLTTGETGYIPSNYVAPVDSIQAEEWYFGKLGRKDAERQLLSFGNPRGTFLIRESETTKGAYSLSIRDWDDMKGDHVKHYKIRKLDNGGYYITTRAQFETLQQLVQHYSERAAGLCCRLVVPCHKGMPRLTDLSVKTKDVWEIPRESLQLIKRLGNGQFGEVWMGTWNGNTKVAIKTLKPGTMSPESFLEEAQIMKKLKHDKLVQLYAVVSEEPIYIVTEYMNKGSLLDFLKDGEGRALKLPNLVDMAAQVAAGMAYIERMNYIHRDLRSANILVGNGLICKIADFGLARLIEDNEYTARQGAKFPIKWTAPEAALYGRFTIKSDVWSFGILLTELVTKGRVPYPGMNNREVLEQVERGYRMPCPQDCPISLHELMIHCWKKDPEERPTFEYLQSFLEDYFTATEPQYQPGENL
In short: as §1

[7] = target: T6, HCK (Homo sapiens, UniProt P08631); conditions: compound 5 μM; ATP at Km; 30-minute pre-incubation
T6 construct: purchased Nanosyn (contract screening)
T6 sequence (P08631 whole entry): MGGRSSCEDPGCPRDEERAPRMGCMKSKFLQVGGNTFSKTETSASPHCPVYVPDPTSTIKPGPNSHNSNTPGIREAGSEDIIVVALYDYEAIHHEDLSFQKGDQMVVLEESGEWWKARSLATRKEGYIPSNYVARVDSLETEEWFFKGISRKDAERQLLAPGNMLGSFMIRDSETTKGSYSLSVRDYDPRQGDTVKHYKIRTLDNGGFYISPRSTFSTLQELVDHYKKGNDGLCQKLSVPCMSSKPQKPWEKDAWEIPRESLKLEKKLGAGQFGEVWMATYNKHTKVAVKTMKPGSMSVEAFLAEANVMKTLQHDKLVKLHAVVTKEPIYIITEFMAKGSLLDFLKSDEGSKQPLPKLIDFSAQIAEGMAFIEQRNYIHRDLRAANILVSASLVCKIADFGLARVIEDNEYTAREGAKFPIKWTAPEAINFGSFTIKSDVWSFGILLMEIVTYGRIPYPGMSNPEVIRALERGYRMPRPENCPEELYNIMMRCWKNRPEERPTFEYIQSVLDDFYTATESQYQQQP
In short: as §1

[8] = target: T7, LYNa (Homo sapiens, UniProt P07948); conditions: compound 5 μM; ATP at Km; 30-minute pre-incubation
T7 construct: purchased Nanosyn (contract screening)
In short: as §1

[9] = target: T8, PDGFRb (Homo sapiens, UniProt P09619); conditions: compound 5 μM; ATP at Km; 30-minute pre-incubation
T8 construct: Nanosyn (contract laboratory that ran the panel)
T8 sequence (P09619 33-1106): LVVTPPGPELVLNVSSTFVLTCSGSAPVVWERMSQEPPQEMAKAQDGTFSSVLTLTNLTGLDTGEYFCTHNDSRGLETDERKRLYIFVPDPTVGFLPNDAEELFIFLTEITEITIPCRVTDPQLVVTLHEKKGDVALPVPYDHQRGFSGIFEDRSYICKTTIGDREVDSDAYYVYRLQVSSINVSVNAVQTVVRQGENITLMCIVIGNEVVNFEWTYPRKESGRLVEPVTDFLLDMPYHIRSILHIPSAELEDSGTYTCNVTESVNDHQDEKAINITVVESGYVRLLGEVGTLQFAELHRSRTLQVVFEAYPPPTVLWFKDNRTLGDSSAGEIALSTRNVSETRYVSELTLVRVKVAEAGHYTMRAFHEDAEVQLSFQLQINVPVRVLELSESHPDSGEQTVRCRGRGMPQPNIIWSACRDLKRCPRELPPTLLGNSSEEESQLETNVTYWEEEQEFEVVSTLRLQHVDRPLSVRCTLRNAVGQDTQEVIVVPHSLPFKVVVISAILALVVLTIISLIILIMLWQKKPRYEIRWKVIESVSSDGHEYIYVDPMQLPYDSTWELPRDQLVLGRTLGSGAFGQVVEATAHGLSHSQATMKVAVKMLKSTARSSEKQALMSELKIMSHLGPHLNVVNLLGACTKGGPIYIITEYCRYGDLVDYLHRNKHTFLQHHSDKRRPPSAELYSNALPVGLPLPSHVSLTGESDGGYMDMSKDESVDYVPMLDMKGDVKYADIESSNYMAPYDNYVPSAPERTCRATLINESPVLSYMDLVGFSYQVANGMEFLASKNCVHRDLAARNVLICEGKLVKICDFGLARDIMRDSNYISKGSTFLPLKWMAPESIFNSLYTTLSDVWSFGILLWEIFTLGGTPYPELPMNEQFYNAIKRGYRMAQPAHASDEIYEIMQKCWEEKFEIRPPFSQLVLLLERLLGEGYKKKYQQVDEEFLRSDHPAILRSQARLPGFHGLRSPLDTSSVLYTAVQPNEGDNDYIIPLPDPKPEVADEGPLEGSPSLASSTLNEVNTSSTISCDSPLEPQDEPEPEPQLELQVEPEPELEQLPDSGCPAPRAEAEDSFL
In short: as §1

[10] = target: T9, PIKfyve (Homo sapiens, UniProt Q9Y2I7); conditions: compound 5 μM; ATP at Km; 30-minute pre-incubation
T9 construct: Nanosyn (contract laboratory that ran the panel)
In short: as §1

[11] = target: T10, PKCb1 (Homo sapiens, UniProt P05771); conditions: compound 5 μM; ATP at Km; 30-minute pre-incubation
T10 construct: Nanosyn (contract laboratory that ran the panel)
T10 sequence (P05771 whole entry): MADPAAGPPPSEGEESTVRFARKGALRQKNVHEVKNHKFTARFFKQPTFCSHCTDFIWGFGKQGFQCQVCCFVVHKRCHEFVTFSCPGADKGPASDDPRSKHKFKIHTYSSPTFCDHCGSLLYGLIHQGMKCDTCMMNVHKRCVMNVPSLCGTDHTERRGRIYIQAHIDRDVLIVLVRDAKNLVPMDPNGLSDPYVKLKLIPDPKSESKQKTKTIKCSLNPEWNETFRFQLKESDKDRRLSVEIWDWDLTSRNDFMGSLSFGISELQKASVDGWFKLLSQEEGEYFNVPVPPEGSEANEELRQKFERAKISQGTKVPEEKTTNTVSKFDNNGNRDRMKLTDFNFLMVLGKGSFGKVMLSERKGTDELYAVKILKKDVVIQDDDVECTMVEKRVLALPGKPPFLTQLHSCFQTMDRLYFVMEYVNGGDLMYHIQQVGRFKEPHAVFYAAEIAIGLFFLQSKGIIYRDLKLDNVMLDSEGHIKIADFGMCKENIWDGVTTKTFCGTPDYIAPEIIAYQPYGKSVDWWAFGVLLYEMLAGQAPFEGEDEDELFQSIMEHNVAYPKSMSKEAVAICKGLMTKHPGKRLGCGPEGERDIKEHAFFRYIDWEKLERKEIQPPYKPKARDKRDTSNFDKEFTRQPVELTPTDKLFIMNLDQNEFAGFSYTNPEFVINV
In short: as §1

[12] = target: T11, RET (Homo sapiens, UniProt P07949); conditions: compound 5 μM; ATP at Km; 30-minute pre-incubation
T11 construct: Nanosyn (contract laboratory that ran the panel)
In short: as §1

[13] = target: T12, SGK2 (Homo sapiens, UniProt Q9HBY8); conditions: compound 5 μM; ATP at Km; 30-minute pre-incubation
T12 construct: Nanosyn (contract laboratory that ran the panel)
T12 sequence (Q9HBY8 1-367): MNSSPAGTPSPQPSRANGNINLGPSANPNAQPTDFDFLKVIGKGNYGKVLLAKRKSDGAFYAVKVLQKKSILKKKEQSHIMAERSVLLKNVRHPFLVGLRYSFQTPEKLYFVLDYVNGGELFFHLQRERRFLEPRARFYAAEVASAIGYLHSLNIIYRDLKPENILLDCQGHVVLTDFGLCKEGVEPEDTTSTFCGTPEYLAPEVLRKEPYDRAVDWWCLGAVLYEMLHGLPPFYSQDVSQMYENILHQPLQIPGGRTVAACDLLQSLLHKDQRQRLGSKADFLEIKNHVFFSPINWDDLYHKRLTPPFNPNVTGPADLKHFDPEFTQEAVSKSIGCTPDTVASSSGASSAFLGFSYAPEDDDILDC
In short: as §1

[14] = target: T13, SGK3 (Homo sapiens, UniProt Q96BR1); conditions: compound 5 μM; ATP at Km; 30-minute pre-incubation
T13 construct: Nanosyn (contract laboratory that ran the panel)
T13 sequence (Q96BR1 1-496): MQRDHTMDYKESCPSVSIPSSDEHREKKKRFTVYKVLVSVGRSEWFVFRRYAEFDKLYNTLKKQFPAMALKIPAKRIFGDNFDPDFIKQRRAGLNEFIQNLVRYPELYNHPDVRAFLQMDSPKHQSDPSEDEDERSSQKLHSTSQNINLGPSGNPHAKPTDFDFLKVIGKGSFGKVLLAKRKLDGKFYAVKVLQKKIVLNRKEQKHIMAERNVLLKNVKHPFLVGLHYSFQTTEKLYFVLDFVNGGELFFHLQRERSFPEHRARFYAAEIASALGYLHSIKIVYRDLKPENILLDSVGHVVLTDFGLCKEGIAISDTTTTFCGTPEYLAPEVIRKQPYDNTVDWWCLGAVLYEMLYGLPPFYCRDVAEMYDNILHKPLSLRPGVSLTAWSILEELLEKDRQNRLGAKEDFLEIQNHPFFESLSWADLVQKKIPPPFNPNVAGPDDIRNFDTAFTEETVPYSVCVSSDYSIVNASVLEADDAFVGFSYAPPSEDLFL
In short: as §1

[15] = target: T14, SPHK2 (Homo sapiens, UniProt Q9NRA0); conditions: compound 5 μM; ATP at Km; 30-minute pre-incubation
T14 construct: Nanosyn (contract laboratory that ran the panel)
T14 sequence (Q9NRA0 1-654): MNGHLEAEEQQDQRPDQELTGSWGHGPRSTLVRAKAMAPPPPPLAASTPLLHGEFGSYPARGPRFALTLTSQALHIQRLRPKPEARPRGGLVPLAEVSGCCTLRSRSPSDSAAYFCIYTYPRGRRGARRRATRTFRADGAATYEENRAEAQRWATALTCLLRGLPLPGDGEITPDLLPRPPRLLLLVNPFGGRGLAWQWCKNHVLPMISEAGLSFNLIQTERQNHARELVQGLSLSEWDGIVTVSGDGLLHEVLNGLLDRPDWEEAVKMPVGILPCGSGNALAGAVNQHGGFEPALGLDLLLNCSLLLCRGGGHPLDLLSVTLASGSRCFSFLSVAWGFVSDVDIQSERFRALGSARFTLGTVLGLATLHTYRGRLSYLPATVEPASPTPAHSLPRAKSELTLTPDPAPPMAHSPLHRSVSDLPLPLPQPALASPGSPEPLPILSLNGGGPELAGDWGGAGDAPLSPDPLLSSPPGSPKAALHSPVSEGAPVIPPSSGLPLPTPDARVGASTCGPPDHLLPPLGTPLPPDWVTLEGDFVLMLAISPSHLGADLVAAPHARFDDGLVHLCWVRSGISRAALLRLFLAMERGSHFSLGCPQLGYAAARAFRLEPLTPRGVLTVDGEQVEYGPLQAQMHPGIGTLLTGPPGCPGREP
In short: as §1

[16] = target: T15, SRC (Homo sapiens, UniProt P12931); conditions: compound 5 μM; ATP at Km; 30-minute pre-incubation
T15 construct: Nanosyn (contract laboratory that ran the panel)
In short: as §1

[17] = target: T16, TNIK (Homo sapiens, UniProt Q9UKE5); conditions: compound 5 μM; ATP at Km; 30-minute pre-incubation
T16 construct: Nanosyn (contract laboratory that ran the panel)
In short: as §1

[18] = target: T17, p38a (Homo sapiens, UniProt Q16539); conditions: compound 5 μM; ATP at Km; 30-minute pre-incubation
T17 construct: Nanosyn (contract laboratory that ran the panel)
T17 sequence (Q16539 whole entry): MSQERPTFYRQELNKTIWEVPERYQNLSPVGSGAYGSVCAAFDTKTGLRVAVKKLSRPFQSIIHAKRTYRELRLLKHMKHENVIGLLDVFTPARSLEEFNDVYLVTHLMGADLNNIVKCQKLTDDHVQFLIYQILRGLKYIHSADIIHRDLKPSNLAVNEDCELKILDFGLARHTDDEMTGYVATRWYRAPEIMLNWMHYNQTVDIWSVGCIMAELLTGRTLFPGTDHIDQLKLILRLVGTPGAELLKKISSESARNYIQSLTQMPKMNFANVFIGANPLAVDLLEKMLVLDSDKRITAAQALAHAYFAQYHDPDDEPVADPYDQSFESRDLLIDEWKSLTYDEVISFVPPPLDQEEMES
In short: as §1

T1 sequence (P42684 whole entry): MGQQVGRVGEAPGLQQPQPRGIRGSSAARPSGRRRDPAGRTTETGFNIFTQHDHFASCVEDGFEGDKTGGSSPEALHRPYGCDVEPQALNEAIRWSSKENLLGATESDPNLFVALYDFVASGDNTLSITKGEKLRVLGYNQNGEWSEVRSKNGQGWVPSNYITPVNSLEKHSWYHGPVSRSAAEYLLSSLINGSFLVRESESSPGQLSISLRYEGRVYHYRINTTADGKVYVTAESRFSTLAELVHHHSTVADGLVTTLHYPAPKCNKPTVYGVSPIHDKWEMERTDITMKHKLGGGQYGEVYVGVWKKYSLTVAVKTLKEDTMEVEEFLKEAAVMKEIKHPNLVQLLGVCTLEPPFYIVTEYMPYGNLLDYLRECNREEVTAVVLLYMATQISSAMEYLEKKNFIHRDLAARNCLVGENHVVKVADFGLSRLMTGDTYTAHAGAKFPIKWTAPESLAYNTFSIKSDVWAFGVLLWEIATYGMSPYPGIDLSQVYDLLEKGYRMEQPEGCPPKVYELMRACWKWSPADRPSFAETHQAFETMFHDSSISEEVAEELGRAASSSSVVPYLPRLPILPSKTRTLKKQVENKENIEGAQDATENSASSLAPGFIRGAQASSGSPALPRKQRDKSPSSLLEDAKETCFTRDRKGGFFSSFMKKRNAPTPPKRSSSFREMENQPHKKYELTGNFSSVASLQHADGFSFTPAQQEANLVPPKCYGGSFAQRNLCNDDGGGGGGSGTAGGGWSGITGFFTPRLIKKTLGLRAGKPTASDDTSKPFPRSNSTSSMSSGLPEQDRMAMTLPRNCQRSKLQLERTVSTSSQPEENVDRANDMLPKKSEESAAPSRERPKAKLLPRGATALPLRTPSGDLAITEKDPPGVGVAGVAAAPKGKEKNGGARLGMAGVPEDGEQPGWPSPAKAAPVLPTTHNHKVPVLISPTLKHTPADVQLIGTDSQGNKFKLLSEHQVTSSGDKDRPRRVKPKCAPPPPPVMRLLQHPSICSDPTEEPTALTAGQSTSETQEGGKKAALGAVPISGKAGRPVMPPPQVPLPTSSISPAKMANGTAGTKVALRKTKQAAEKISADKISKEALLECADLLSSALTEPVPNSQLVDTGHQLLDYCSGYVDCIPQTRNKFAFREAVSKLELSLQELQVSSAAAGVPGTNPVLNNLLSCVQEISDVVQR

Row | SMILES | inhibition at 5 µM [1] [%] | inhibition at 5 µM [2] [%] | inhibition at 5 µM [3] [%] | kinase inhibition, EPH [4] | inhibition at 5 µM [5] [%] | inhibition at 5 µM [6] [%] | inhibition at 5 µM [7] [%] | inhibition at 5 µM [8] [%] | inhibition at 5 µM [9] [%] | inhibition at 5 µM [10] [%] | inhibition at 5 µM [11] [%] | inhibition at 5 µM [12] [%] | inhibition at 5 µM [13] [%] | inhibition at 5 µM [14] [%] | inhibition at 5 µM [15] [%] | inhibition at 5 µM [16] [%] | inhibition at 5 µM [17] [%] | inhibition at 5 µM [18] [%] | IC50 [3] [nM]
1 | Cc1ccc(NC(=O)c2cc(S(C)(=O)=O)n(-c3ccc(F)cc3)n2)cc1Nc1ccc2ncn(C)c(=O)c2c1 [Ex4, 1-(4-fluorophenyl)-N-(4-methyl-3-((3-methyl-4-oxo-3,4-dihydroquinazolin-6-yl)amino)phenyl)-5-(methylsulfonyl)-1H-pyrazole-3-carboxamide] | < 79 | < 79 | < 79 | D (D=79% and less) | < 79 | < 79 | < 79 | < 79 | 80 to 89 | < 79 | < 79 | 90 to 94 | < 79 | < 79 | < 79 | < 79 | < 79 | 80 to 89 | –
2 | Cc1ccc(NC(=O)c2cc([S+](C)[O-])n(-c3ccc(F)cc3)n2)cc1Nc1ccc2ncn(C)c(=O)c2c1 (centres unmarked) [Ex5, 1-(4-fluorophenyl)-N-(4-methyl-3-((3-methyl-4-oxo-3,4-dihydroquinazolin-6-yl)amino)phenyl)-5-(methylsulfinyl)-1H-pyrazole-3-carboxamide] | < 79 | < 79 | 90 to 94 | D (D=79% and less) | < 79 | < 79 | < 79 | ≥ 95 | < 79 | < 79 | < 79 | < 79 | < 79 | < 79 | < 79 | < 79 | < 79 | ≥ 95 | –
3 | Cc1ccc(NC(=O)c2cc([S+](C)[O-])n(-c3ccc(F)cc3)n2)cc1C#Cc1cnc2cccnn12 (centres unmarked) [Ex6, 1-(4-fluorophenyl)-N-(3-(imidazo[1,2-b]pyridazin-3-ylethynyl)-4-methylphenyl)-5-(methylsulfinyl)-1H-pyrazole-3-carboxamide] | ≥ 95 | 80 to 89 | ≥ 95 | D (D=79% and less) | 80 to 89 | ≥ 95 | ≥ 95 | 90 to 94 | ≥ 95 | 90 to 94 | < 79 | 90 to 94 | 90 to 94 | < 79 | < 79 | 90 to 94 | < 79 | 90 to 94 | –
4 | CNC(=O)c1cc(Oc2ccc(F)c(NC(=O)c3cc([S+](C)[O-])n(-c4ccc(F)cc4)n3)c2)ccn1 (centres unmarked) [Ex7, 4-(4-fluoro-3-(1-(4-fluorophenyl)-5-(methylsulfinyl)-1H-pyrazole-3-carboxamido)phenoxy)-N-methylpicolinamide] | < 79 | < 79 | < 79 | D (D=79% and less) | < 79 | < 79 | < 79 | < 79 | < 79 | < 79 | < 79 | < 79 | < 79 | < 79 | < 79 | < 79 | < 79 | < 79 | –

Results, then the compound that gave them:

Row | inhibition at 5 µM [1] [%] | inhibition at 5 µM [2] [%] | inhibition at 5 µM [3] [%] | kinase inhibition, EPH [4] | inhibition at 5 µM [5] [%] | inhibition at 5 µM [6] [%] | inhibition at 5 µM [7] [%] | inhibition at 5 µM [8] [%] | inhibition at 5 µM [9] [%] | inhibition at 5 µM [10] [%] | inhibition at 5 µM [11] [%] | inhibition at 5 µM [12] [%] | inhibition at 5 µM [13] [%] | inhibition at 5 µM [14] [%] | inhibition at 5 µM [15] [%] | inhibition at 5 µM [16] [%] | inhibition at 5 µM [17] [%] | inhibition at 5 µM [18] [%] | IC50 [3] [nM] | SMILES
5 | < 79 | < 79 | < 79 | D (D=79% and less) | < 79 | < 79 | < 79 | < 79 | < 79 | < 79 | 80 to 89 | < 79 | < 79 | 80 to 89 | < 79 | < 79 | 90 to 94 | < 79 | – | CSc1cc(C(=O)Nc2cc(Oc3ccnc(C(=O)NC4CNC4)c3)ccc2F)nn1-c1ccc(F)cc1 [Ex8, N-(azetidin-3-yl)-4-(4-fluoro-3-(1-(4-fluorophenyl)-5-(methylthio)-1H-pyrazole-3-carboxamido)phenoxy)picolinamide]
6 | < 79 | < 79 | ≥ 95 | D (D=79% and less) | < 79 | < 79 | < 79 | < 79 | < 79 | < 79 | < 79 | < 79 | < 79 | < 79 | < 79 | < 79 | < 79 | < 79 | – | Cc1ccc(NC(=O)c2cc(S(C)(=O)=O)n(-c3ccc(F)cc3)n2)cc1-c1cc(OCCO)nc(N2CCOCC2)c1 [Ex9, 1-(4-fluorophenyl)-N-(3-(2-(2-hydroxyethoxy)-6-morpholinopyridin-4-yl)-4-methylphenyl)-5-(methylsulfonyl)-1H-pyrazole-3-carboxamide]
7 | – | – | – | – | – | – | – | – | – | – | – | – | – | – | – | – | – | – | < 500 | COc1cc2nccc(Oc3ccc(NC(=O)c4cc(S(C)(=O)=O)n(-c5ccc(F)cc5)n4)c(F)c3)c2cc1OC [Ex71, N-(4-((6,7-dimethoxyquinolin-4-yl)oxy)-2-fluorophenyl)-1-(4-fluorophenyl)-5-(methylsulfonyl)-1H-pyrazole-3-carboxamide]
8 | – | – | – | – | – | – | – | – | – | – | – | – | – | – | – | – | – | – | < 500 | COc1cc2nccc(Oc3ccc(NC(=O)c4cc(S(C)(=O)=O)n(-c5ccc(F)cc5)n4)cc3F)c2cc1OC [Ex73, N-(4-((6,7-dimethoxyquinolin-4-yl)oxy)-3-fluorophenyl)-1-(4-fluorophenyl)-5-(methylsulfonyl)-1H-pyrazole-3-carboxamide]
